Measurements taken from PMC10223019, “Preclinical Evaluation of a PSMA-Targeting Homodimer with an Optimized Linker for Imaging of Prostate Cancer” (Molecules, 2023).

Experiments:
[1] = Stability in mouse serum, radio-HPLC; format: in vitro ADME
Description: [^111In]In-22 or [^111In]In-30 (~35 MBq, 70 µL) was mixed with 330 μL of mouse serum and incubated at 37 °C for up to 24 h. After 1, 4, and 24 h incubation, 50 μL of the mouse serum solution was added to a separate vial containing 50 µL of acetonitrile. The sample was centrifuged at 5000× g for 20 min. The supernatant was analyzed by radio-HPLC.

[2] = LogD7.4 by shake-flask method (PBS/n-octanol); format: physicochemical; conditions: LogD7.4, PBS pH 7.4/n-octanol, indium-111 labeled compound
Description: The distribution coefficients (LogD7.4 values) were determined by a shake-flask method, in which 2 μL (~0.5 MBq) of the labeling solution ([^111In]In-22 or [^111In]In-30) were added to an Eppendorf tube containing 1 mL of PBS (0.01 M, pH 7.4)/n-octanol (v/v, 1:1). After vigorous vortexing, the solution was centrifuged at 2500× g for 15 min for phase separation. Samples (3 × 10 μL) of the two phases were taken out and measured in a gamma counter. LogD7.4 values were calculated by using the following equation: LogD7.4 = log [(counts in octanol phase)/(counts in aqueous phase)] and the experiment was performed in triplicate.

[3] = test system: PSMA expressing LS174T cells; assay: Internalization and cell uptake assay; format: cell-based, human; conditions: 2 h 37 °C
Description: LS174T human colon carcinoma cells transfected with human PSMA were obtained from Dr. Sandra Heskamp (Radboud UMC, Nijmegen). Cells were cultured in RPMI-1640 media supplemented with 2 mM glutamine, 10% fetal bovine serum (FBS) and 0.3 mg/mL G418 (Geneticin, Sigma Aldrich, St. Louis, MO, USA).
Cells were seeded (1.2 × 10^6 cells/well) and cultured to confluency for 24 h prior to experiments. We prepared 10^−9 M solutions of [^111In]In-PSMA-617, [^111In]In-22, and [^111In]In-30 in internalization media (RPMI, 20 mM HEPES, 1% BSA, pH 7.4). The media were removed from each well, and they were rinsed twice with PBS at rt. 2 mL of the radioactive compound was then added to each well and incubated at 37 °C for 2 h. For the internalization assay, the media containing radioactive compound were removed, and each well was washed twice with cold PBS. A total of 1 mL of Glycine buffer (50 mM glycine, 100 mM NaCl, pH 2.8) was added immediately and incubated for 10 min at rt. The glycine wash was then collected into counting tubes (membrane-bound fraction). An extra wash was performed and collected in the same tubes. A total of 1 mL of NaOH (1 M) was then added to each tube and left for 15 min at rt. The lysate (internalized fraction) was then collected in separate counting tubes, together with one extra NaOH wash. Data were normalized to 1,000,000 cells and percentage added dose.

[4] = test system: BALB/c nude mice bearing LS174T PSMA-positive tumor xenografts; assay: Ex vivo biodistribution studies; format: in vivo
Description: Animal experiments were performed in 8–10 weeks old male BALB/c nude mice (Janvier Labs, Le Genest-Saint-Isle, France). Animals were housed in individually ventilated cages (Blue line IVC, 4 mice per cage) under nonsterile standard conditions with cage enrichment present and free access to chlorophyll-free animal chow (Sniff GmbH, Soest, Germany) and water and acclimated for 1 week before experiments. Mice were subcutaneously inoculated with 4.0 × 10^6 LS174T cells in the right flank, diluted in 100 μL of cell suspension. Seven days after tumor cell inoculation, when xenografts were approximately 0.2–0.3 cm^3, the tracers were injected intravenously via the tail vein. All experiments were approved by the institutional Animal Welfare Committee and were conducted in accordance with the guidelines of the Revised Dutch Act on Animal Experimentation (WOD).
Mice were intravenously injected with ~1 nmol of either [^111In]In-PSMA-617, [^111In]In-22 or [^111In]In-30 with molar activity of 5 MBq/nmol for ex vivo biodistribution studies. Mice (n = 4/timepoint) were euthanized by cervical dislocation at 1, 4, and 24 h p.i. A block group was included, and mice were euthanized at 4 h p.i. Organs were collected in tubes and counted in the gamma counter, where the calibration factor was determined by measuring different known activities of indium-111.

[5] = Stability in phosphate-buffered saline (PBS), radio-HPLC; format: physicochemical; conditions: 24 h post-incubation, 37 °C, indium-111 labeled, intact fraction
Description: [^111In]In-22 or [^111In]In-30 (~10 MBq, 20 µL) was mixed with 80 μL of PBS (0.01 M, pH 7.4) and incubated at 37 °C for up to 24 h. A sample of the PBS solution was loaded directly onto the radio-HPLC at 1, 4, and 24 h post-incubation.

[6] = 4 h p.i. block group (excess unlabeled PSMA ligand)

Stability in Mouse Serum (%) ([1]; 24 h post-incubation, 37 °C, indium-111 labeled, intact fraction): 95.1% | Proteolytic degradation ([1]; mouse serum up to 24 h): No proteolytic degradation | logD [2]: −3.26 ± 0.05 | Tumor-to-muscle (T/M) ratio ([4]; 1 h p.i.): 31 | Blood uptake ([4]; 1 h p.i., i.v. ~1 nmol): 0.14 ± 0.01 % ID/g | Bone uptake ([4]; 1 h p.i., i.v. ~1 nmol): 0.20 ± 0.01 % ID/g | Heart uptake ([4]; 1 h p.i., i.v. ~1 nmol): 0.13 ± 0.05 % ID/g | Intestines uptake ([4]; 1 h p.i., i.v. ~1 nmol): 0.26 ± 0.17 % ID/g | Kidney uptake ([4]; 1 h p.i., i.v. ~1 nmol): 22.56 ± 2.59 % ID/g | Liver uptake ([4]; 1 h p.i., i.v. ~1 nmol): 0.17 ± 0.03 % ID/g | Lung uptake ([4]; 1 h p.i., i.v. ~1 nmol): 0.45 ± 0.07 % ID/g | Muscle uptake ([4]; 1 h p.i., i.v. ~1 nmol): 0.07 ± 0.01 % ID/g | Pancreas uptake ([4]; 1 h p.i., i.v. ~1 nmol): 0.22 ± 0.03 % ID/g | Prostate uptake ([4]; 1 h p.i., i.v. ~1 nmol): 0.51 ± 0.25 % ID/g | Skin uptake ([4]; 1 h p.i., i.v. ~1 nmol): 0.44 ± 0.16 % ID/g | Spleen uptake ([4]; 1 h p.i., i.v. ~1 nmol): 1.82 ± 0.37 % ID/g | Stomach uptake ([4]; 1 h p.i., i.v. ~1 nmol): 0.11 ± 0.01 % ID/g | Tumor uptake ([4]; 1 h p.i., i.v. ~1 nmol): 2.05 ± 0.52 % ID/g | Tumor-to-muscle (T/M) ratio ([4]; 4 h p.i.): 48 | Blood uptake [4, 6]: 0.02 ± 0.00 % ID/g | Bone uptake [4, 6]: 0.23 ± 0.13 % ID/g | Heart uptake [4, 6]: 0.04 ± 0.01 % ID/g | Intestines uptake [4, 6]: 0.27 ± 0.03 % ID/g | Kidney uptake [4, 6]: 8.20 ± 0.67 % ID/g | Liver uptake [4, 6]: 0.09 ± 0.00 % ID/g | Lung uptake [4, 6]: 0.09 ± 0.01 % ID/g | Muscle uptake [4, 6]: 0.03 ± 0.01 % ID/g | Pancreas uptake [4, 6]: 0.04 ± 0.01 % ID/g | Prostate uptake [4, 6]: 0.09 ± 0.01 % ID/g | Skin uptake [4, 6]: 0.24 ± 0.07 % ID/g | Spleen uptake [4, 6]: 0.09 ± 0.00 % ID/g | Stomach uptake [4, 6]: 0.17 ± 0.13 % ID/g | Tumor uptake [4, 6]: 0.27 ± 0.14 % ID/g | Blood uptake ([4]; 4 h p.i., i.v. ~1 nmol): 0.02 ± 0.01 % ID/g | Bone uptake ([4]; 4 h p.i., i.v. ~1 nmol): 0.11 ± 0.06 % ID/g | Heart uptake ([4]; 4 h p.i., i.v. ~1 nmol): 0.04 ± 0.01 % ID/g | Intestines uptake ([4]; 4 h p.i., i.v. ~1 nmol): 0.30 ± 0.05 % ID/g | Kidney uptake ([4]; 4 h p.i., i.v. ~1 nmol): 13.55 ± 1.04 % ID/g | Liver uptake ([4]; 4 h p.i., i.v. ~1 nmol): 0.10 ± 0.01 % ID/g | Lung uptake ([4]; 4 h p.i., i.v. ~1 nmol): 0.12 ± 0.03 % ID/g | Muscle uptake ([4]; 4 h p.i., i.v. ~1 nmol): 0.03 ± 0.02 % ID/g | Pancreas uptake ([4]; 4 h p.i., i.v. ~1 nmol): 0.06 ± 0.03 % ID/g | Prostate uptake ([4]; 4 h p.i., i.v. ~1 nmol): 0.18 ± 0.17 % ID/g | Skin uptake ([4]; 4 h p.i., i.v. ~1 nmol): 0.24 ± 0.18 % ID/g | Spleen uptake ([4]; 4 h p.i., i.v. ~1 nmol): 0.30 ± 0.09 % ID/g | Stomach uptake ([4]; 4 h p.i., i.v. ~1 nmol): 0.09 ± 0.06 % ID/g | Tumor uptake ([4]; 4 h p.i., i.v. ~1 nmol): 1.23 ± 0.59 % ID/g | Tumor-to-muscle (T/M) ratio ([4]; 24 h p.i.): 14 | Bone uptake ([4]; 24 h p.i., i.v. ~1 nmol): 0.13 ± 0.04 % ID/g | Heart uptake ([4]; 24 h p.i., i.v. ~1 nmol): 0.03 ± 0.01 % ID/g | Intestines uptake ([4]; 24 h p.i., i.v. ~1 nmol): 0.04 ± 0.02 % ID/g | Kidney uptake ([4]; 24 h p.i., i.v. ~1 nmol): 5.89 ± 1.49 % ID/g | Liver uptake ([4]; 24 h p.i., i.v. ~1 nmol): 0.06 ± 0.01 % ID/g | Lung uptake ([4]; 24 h p.i., i.v. ~1 nmol): 0.05 ± 0.01 % ID/g | Muscle uptake ([4]; 24 h p.i., i.v. ~1 nmol): 0.03 ± 0.00 % ID/g | Pancreas uptake ([4]; 24 h p.i., i.v. ~1 nmol): 0.03 ± 0.01 % ID/g | Prostate uptake ([4]; 24 h p.i., i.v. ~1 nmol): 0.08 ± 0.03 % ID/g | Skin uptake ([4]; 24 h p.i., i.v. ~1 nmol): 0.15 ± 0.01 % ID/g | Spleen uptake ([4]; 24 h p.i., i.v. ~1 nmol): 0.09 ± 0.02 % ID/g | Stomach uptake ([4]; 24 h p.i., i.v. ~1 nmol): 0.02 ± 0.01 % ID/g | Tumor uptake ([4]; 24 h p.i., i.v. ~1 nmol): 0.61 ± 0.40 % ID/g | Tumor uptake ([4]; 24 h p.i., i.v. ~1 nmol, listed as [111In]In-22): 0.41 ± 0.08 % ID/g | Stability in PBS (%) [5]: 95.4%
Compound: CC(C)C[C@H](NC(=O)[C@H](Cc1ccccc1)NC(=O)[C@H](CC(=O)O)NC(=O)CCC(C(=O)O)N1CCN(CC(=O)[O-])CCN(CC(=O)[O-])CCN(CC(=O)[O-])CC1)[C@@H](O)CC(=O)NCCCCCC(=O)NCCCC[C@H](NC(=O)N[C@@H](CCC(=O)O)C(=O)O)C(=O)O.[111In+3] (stereo partly drawn) [[^111In]In-22]
Internalized fraction ([3]; 10^-9 M, NaOH lysate): 0.53 ± 0.08 % AD | Membrane-bound uptake ([3]; 10^-9 M, glycine wash): 1.02 ± 0.15 % AD | Total uptake ([3]; 10^-9 M, normalized to 1,000,000 cells): 1.55 ± 0.21 % AD | Internalized fraction as share of total uptake (internalization) [3]: 34.2% | Membrane-bound uptake as share of total uptake [3]: 66% | Membrane-bound uptake as share of total uptake ([3]; listed as [111In]In-22): 65.8%
